What all share (format): biochemical
Conditions in all cases: fluorogenic substrate, pH 7.5

Assay [1] deals with T1, catalytic domain of human collagenase-1 (MMP-1) (Homo sapiens, UniProt P03956).
T1 construct: Determining the enzymatic activity of the catalytic domain of human collagenase-1 (MMP-1); purchased Biocol, Potsdam MMP1
T1 sequence (P03956 100-269 limits assumed): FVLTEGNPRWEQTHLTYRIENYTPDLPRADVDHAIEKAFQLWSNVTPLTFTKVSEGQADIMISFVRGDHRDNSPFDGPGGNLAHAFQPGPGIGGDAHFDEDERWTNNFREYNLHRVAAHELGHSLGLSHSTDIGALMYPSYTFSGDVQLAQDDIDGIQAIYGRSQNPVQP
Briefly: enzymatic activity of the catalytic domain of human collagenase-1 (MMP-1). How it is done: Determining the enzymatic activity of the catalytic domain of human collagenase-1 (MMP-1).
(§1) Activation of the Proenzyme:
2 parts by volume of proenzyme are incubated, at 37° C. for 1 hour, with 1 part by volume of APMA solution. The APMA solution is prepared from a 10 mmol/l solution of p-aminophenylmercuric acetate in 0.1 mmol/l NaOH by diluting with 3 parts by volume of Tris/HCl buffer pH 7.5 (see below). The pH is adjusted to between 7.0 and 7.5 by adding 1 mmol/l HCl. After the enzyme has been activated, it is diluted with the Tris/HCl buffer down to a concentration of 2.5 μg/ml. In order to measure the enzyme activity, 10 μl of enzyme solution are incubated, for 15 minutes, with 10 μl of a 3% (v/v) buffered solution of dimethyl sulfoxide (reaction 1). […]
Both in the case of reaction 1 and in the case of reaction 2, the enzyme reaction is monitored by fluorescence spectroscopy (328 nm (extinction)/393 nm (emission)) after 10 μl of a 3% (v/v) aqueous solution of dimethyl sulfoxide which contains 0.3 mmol of the substrate/l has been added. The enzyme activity is expressed as increase in extinction/minute. The inhibitor effect is calculated as percentage inhibition in accordance with the following formula: % inhibition=100−[(increase in extinction/minute in reaction 2)/(increase in extinction/minute in reaction 1)×100]. […]

Assay [2] deals with T2, catalytic domain of human neutrophil collagenase (MMP-8) (Homo sapiens, UniProt P22894).
T2 construct: catalytic domains of human stromelysin (MMP-3) and neutrophil collagenase (MMP-8); made in house
T2 sequence (P22894 100-262 limits assumed): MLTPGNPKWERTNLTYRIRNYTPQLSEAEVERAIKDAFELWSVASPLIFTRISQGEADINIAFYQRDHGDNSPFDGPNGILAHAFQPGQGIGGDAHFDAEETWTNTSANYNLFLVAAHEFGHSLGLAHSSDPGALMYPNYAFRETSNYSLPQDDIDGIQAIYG
The assay can be described thus: enzymatic activity of the catalytic domain of human neutrophil collagenase (MMP-8). The procedure: (§2) Preparation, and determination of the enzymatic activity, of the catalytic domains of human stromelysin (MMP-3) and neutrophil collagenase (MMP-8).
(§3) The two enzymes, i.e. stromelysin (MMP-3) and neutrophil collagenase (MMP-8), were prepared in accordance with Ye et al. (Biochemistry; 31 (1992) pages 11231-11235). In order to measure the enzyme activity, or the enzyme inhibitor effect, 10 μl of enzyme solution were incubated, for 15 minutes, with 10 μl of a 3% (v/v) buffered solution of dimethyl sulfoxide which contained the enzyme inhibitor, where appropriate. After 10 μl of a 3% (v/v) aqueous solution of dimethyl sulfoxide containing 1 mmol of the substrate/l had been added, the enzyme reaction was monitored by fluorescence spectroscopy (328 nm (ex)/393 nm (em)).
(§4) The enzyme activity is expressed as increase in extinction/minute. The IC50 values listed in table 2 were determined as being those inhibitor concentrations which in each case led to a 50% inhibition of the enzyme.
(§5) The buffer solution contained 0.05% Brij (Sigma, Deisenhofen, Germany) and also 0.1 mol of Tris/HCl/l, 0.1 mol of NaCl/l, 0.01 mol of CaCl2/l and 0.1 mol of piperazine-N,N′-bis[2-ethanesulfonic acid]/l (pH=7.5). […]

Assay [3] addresses T3, catalytic domain of human stromelysin (MMP-3) (Homo sapiens, UniProt P08254).
T3 construct: catalytic domains of human stromelysin (MMP-3) and neutrophil collagenase (MMP-8); made in house
Briefly: enzymatic activity of the catalytic domain of human stromelysin (MMP-3). The procedure:
as §2, §3, §4, §5

Assay [4] addresses T4, catalytic domain of human collagenase-3 (MMP-13) (Homo sapiens, UniProt P45452).
T4 construct: Determining the enzymatic activity of the catalytic domain of human collagenase-3 (MMP-13); purchased INVITEK, Berlin 30 100 803
Briefly: enzymatic activity of the catalytic domain of human collagenase-3 (MMP-13). How it is done:
Determining the enzymatic activity of the catalytic domain of human collagenase-3 (MMP-13).
as §1
2 parts by volume of proenzyme were incubated, at 37° C. for 1.5 hours, with 1 part by volume of APMA solution. The APMA solution was prepared from a 10 mmol/l solution of p-aminophenylmercuric acetate in 0.1 mmol/l NaOH by diluting with 3 parts by volume of Tris/HCl buffer pH 7.5 (see below). The pH was adjusted to between 7.0 and 7.5 by adding 1 mmol/l HCl. After the enzyme had been activated, it was diluted with the Tris/HCl buffer down to a concentration of 1.67 μg/ml.
(§6) In order to measure the enzyme activity, 10 μl of enzyme solution were incubated, for 15 minutes, with 10 μl of a 3% (v/v) buffered solution of dimethyl sulfoxide (reaction 1). […]
Both in the case of reaction 1 and in the case of reaction 2, the enzyme reaction was monitored by fluorescence spectroscopy (328 nm (extinction)/393 nm (emission)) after 10 μl of a 3% (v/v) aqueous solution of dimethyl sulfoxide containing 0.075 mmol of the substrate/l had been added. […]
(§7) The inhibitor effect was calculated as a percentage inhibition in accordance with the following formula: % inhibition=100−[(increase in extinction/minute in reaction 2)/(increase in extinction/minute in reaction 1)×100]. […]

The target in assay [5] is T5, catalytic domain of human gelatinase-B (MMP-9) (Homo sapiens, UniProt P14780).
T5 construct: Determining the enzymatic activity of the catalytic domain of human gelatinase-B (MMP-9); purchased Roche, Mannheim 1 758 896
T5 sequence (P14780 107-444 limits assumed): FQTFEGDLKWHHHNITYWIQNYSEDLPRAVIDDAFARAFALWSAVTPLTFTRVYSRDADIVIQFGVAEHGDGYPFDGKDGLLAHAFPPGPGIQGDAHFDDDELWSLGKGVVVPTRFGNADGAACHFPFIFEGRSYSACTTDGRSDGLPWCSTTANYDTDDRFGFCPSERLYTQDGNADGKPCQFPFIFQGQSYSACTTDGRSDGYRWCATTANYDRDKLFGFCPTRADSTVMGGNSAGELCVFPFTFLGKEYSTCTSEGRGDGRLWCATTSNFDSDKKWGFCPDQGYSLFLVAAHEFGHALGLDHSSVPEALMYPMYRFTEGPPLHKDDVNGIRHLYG
The assay can be described thus: enzymatic activity of the catalytic domain of human gelatinase-B (MMP-9). How it is done: Determining the enzymatic activity of the catalytic domain of human gelatinase-B (MMP-9).
as §1
2parts by volume of proenzyme were incubated, at 37° C. for 4 hours, with 1 part by volume of APMA solution. The APMA solution was prepared from a 10 mmol/l p-aminophenylmercuric acetate solution in 0.1 mmol/l NaOH by diluting with 3 parts by volume of Tris/HCl buffer, pH 7.5 (see below). The pH was adjusted to between 7.0 and 7.5 by adding 1 mmol/l HCl. After the enzyme had been activated, it was diluted with the Tris/HCl buffer down to a concentration of 4.2 mU/ml.
as §6
Both in the case of reaction 1 and in the case of reaction 2, the enzyme reaction was monitored by fluorescence spectroscopy (328 nm (extinction)/393 nm (emission)) after 10 μl of a 3% (v/v) aqueous solution of dimethyl sulfoxide containing 0.15 mmol of the substrate/l had been added.
(§8) The enzyme activity was expressed as increase in extinction/minute.
as §7

The target of assay [6] is T6, catalytic domain of human gelatinase-A (MMP-2) (Homo sapiens, UniProt P08253).
T6 construct: Determining the enzymatic activity of the catalytic domain of human gelatinase-A (MMP-2); purchased INVITEK, Berlin 30 100 602
T6 sequence (P08253 110-465 limits assumed): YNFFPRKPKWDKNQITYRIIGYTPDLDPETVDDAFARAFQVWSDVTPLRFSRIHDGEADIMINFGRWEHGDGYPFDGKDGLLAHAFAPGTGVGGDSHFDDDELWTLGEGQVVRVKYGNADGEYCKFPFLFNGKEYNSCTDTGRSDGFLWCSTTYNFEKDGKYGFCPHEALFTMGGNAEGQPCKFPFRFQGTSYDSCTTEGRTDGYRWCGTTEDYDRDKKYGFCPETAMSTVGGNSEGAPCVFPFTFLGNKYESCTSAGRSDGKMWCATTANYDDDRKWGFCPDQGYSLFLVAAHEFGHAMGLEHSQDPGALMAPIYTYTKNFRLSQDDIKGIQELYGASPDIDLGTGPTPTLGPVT
The assay can be described thus: enzymatic activity of the catalytic domain of human gelatinase-A (MMP-2). How it is done:
Determining the enzymatic activity of the catalytic domain of human gelatinase-A (MMP-2).
as §1
2 parts by volume of proenzyme were incubated, at 37° C. for 0.5 hour, with 1 part by volume of APMA solution. The APMA solution was prepared from a 10 mmol/l p-aminophenylmercuric acetate solution in 0.1 mmol/l NaOH by diluting with 3 parts by volume of Tris/HCl buffer pH 7.5 (see below). The pH was adjusted to between 7.0 and 7.5 by adding 1 mmol HCl/l. After the enzyme had been activated, it was diluted with the Tris/HCl buffer down to a concentration of 0.83 μg/ml. In order to measure the enzyme activity, 10 μl of enzyme solution were incubated, for 15 minutes, with 10 μl of a 3% (v/v) buffered solution of dimethyl sulfoxide (reaction 1). […]
Both in the case of reaction 1 and in the case of reaction 2, the enzyme reaction was monitored by fluorescence spectroscopy (328 nm (extinction)/393 nm (emission)) after 10 μl of a 3% (v/v) aqueous solution of dimethyl sulfoxide containing 0.3 mmol of the substrate/l had been added.
as §8, §7

The values that follow come from patent US7399770B2, “Thieno-imino acid derivatives for use as matrix metalloproteinase inhibitors” (SANOFI-AVENTIS Deutschland GmbH, priority 2004, dated 2008).

T3 sequence (P08254 100-272 limits assumed): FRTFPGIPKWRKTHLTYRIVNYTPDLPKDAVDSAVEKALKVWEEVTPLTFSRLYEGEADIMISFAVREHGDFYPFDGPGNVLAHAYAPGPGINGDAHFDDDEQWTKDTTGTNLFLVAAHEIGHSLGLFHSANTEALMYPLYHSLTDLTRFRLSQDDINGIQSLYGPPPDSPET

Turning to `O=C(NO)C1c2c(sc3ccccc23)C(O)CN1S(=O)(=O)c1ccc(-c2ccc(Cl)cc2)cc1` (stereo not drawn) [Example 1, 2-(4′-Chlorobiphenyl-4-sulfonyl)-4-hydroxy-1,2,3,4-tetrahydrobenzo[4,5]thieno[3,2-c]pyridine-1-carboxylic acid hydroxyamide], the IC50 in assay [1] amounted to 700 nM; in assay [2], 13 nM; in assay [3], 70 nM; in assay [4], 6.3 nM; in assay [5], 3.5 nM; in assay [6], 2.5 nM.
